From US5698590A, “Prostaglandin derivatives” (Ono Pharmaceutical Co., Ltd., priority 1995, dated 1997)

Assays:
[1] = test system: cutaneous blood flow of the dorsum pedis; assay: blood flow increasing effect in anesthetized rats (laser-Doppler flowmetry, AUC); type: in vivo, Male rats; set-up: Blood flow increasing effect: Total AUC: unit not given here; details: for Blood flow increasing effect: Total AUC / Blood flow increasing effect: Dose (A) required to obtain AUC = 771: rat; for Blood flow increasing effect: Total AUC: injection via jugular vein; for Blood flow increasing effect: Dose (A) required to obtain AUC = 771: AUC 771 = effect of PGE1 lipid emulsion 5 μg/kg i.v.; for Blood flow increasing effect: Relative activity (X): relative to comparative compound = 1, from Dose (A)
Procedure: (§1) Male rats weighing 200-350 g were anesthetized with urethane (25% urethane, 6 ml/kg, s.c.). The carotid artery and jugular vein were cannulated with polyethylene tubes for measurement of blood pressure and for drug injection, respectively. Blood pressure was obtained with a disposable pressure transducer kit (Spectramed, Ltd) and recorded with a recticoder (model RJG-4128, Nihon kohden, Ltd). Also, blood flow was monitored as cutaneous blood flow of the dorsum pedis using an attachment-type laser-Doppler flowmeter (model ALF21, Advance, Ltd). Measurements were taken until the values recovered to the level observed before injection of drugs. Injection time was about 10 seconds. The hypotensive effect and blood flow increasing effect were calculated as the maximum hypotensive activity (mmHg) and the area under the curve (AUC) after injection of drugs, respectively.
(§2) The results were represented by the dose required to obtain an effective increase in blood flow (main effect), and by the hypotensive effect (side effect) at the same dose.
(§3) The compounds of the present invention were administered in the form of liposome formulations (as prepared in Example 3 below). […] The solubility of this comparative compound was very low; thus, administration without solubilizer was impossible.
The effectiveness of increasing blood flow was determined by the following method.
(§4) The dry lipid film was dispersed into a 10% maltose solution (3 ml) by using a vortex mixer (type S-100, Taiyokagaku Inc.) and an aqueous suspension with a drug concentration of 1, 3, 10, or 30 μg/ml was obtained. The obtained multilamellar liposome solutions (3 ml) were transferred into plastic tubes and then sonicated with a probe sonicator (type: SONIFIER cell disruptor 200, Branson) at the condition of 50% pulsed operation for 15 minutes. The sonicated solutions were passed through a membrane filter with a pore diameter of 0.2 μm to remove titanium particles and liposome formulations with a mean diameter of 40-70 nm were formed.

blood pressure = assay: hypotensive effect in anesthetized rats (maximum hypotensive activity); type: in vivo, Male rats; details: for Hypotensive effect: Maximum hypotension on dose (A): at dose (A) required to obtain AUC = 771; for Hypotensive effect: Maximum hypotension on dose (A) / Hypotensive effect: Maximum hypotension: rat; for Hypotensive effect: Maximum hypotension: injection via jugular vein; for Hypotensive effect: Relative activity (X): relative to comparative compound = 1, at dose (A)
Procedure: as §1, §2, §3, §4

[2] = solubility of comparative compound; type: physicochemical; details: administration without solubilizer was impossible

| solubility [2] | SMILES | Blood flow increasing effect: Total AUC ([1]; dose 1 μg/kg) | Blood flow increasing effect: Total AUC ([1]; dose 3 μg/kg) | Blood flow increasing effect: Total AUC ([1]; dose 10 μg/kg) | Blood flow increasing effect: Dose (A) required to obtain AUC = 771 [1] [µg/kg] | Blood flow increasing effect: Relative activity (X) [1] | Hypotensive effect: Maximum hypotension on dose (A) (blood pressure) [mmHg] | Hypotensive effect: Maximum hypotension (blood pressure; dose 1 μg/kg) [mmHg] | Hypotensive effect: Maximum hypotension (blood pressure; dose 3 μg/kg) [mmHg] | Hypotensive effect: Maximum hypotension (blood pressure; dose 10 μg/kg) [mmHg] | Hypotensive effect: Relative activity (X) (blood pressure) | Blood flow increasing effect: Total AUC ([1]; dose 30 μg/kg) | Hypotensive effect: Maximum hypotension (blood pressure; dose 30 μg/kg) [mmHg] |
| --- | --- | --- | --- | --- | --- | --- | --- | --- | --- | --- | --- | --- | --- |
|  | CCCCCC(=O)OCC(COC(=O)CCCCC)OC(=O)CCCCCC[C@H]1C(=O)C[C@@H](O)[C@@H]1/C=C/[C@@H](O)CCCCC [Example 2, PGE1 1,3-bis (hexanoyloxy)-2-propyl ester] | 185 | 1206 | 3919 | 2.2 | 10.7 | 6.7 | 4 | 9 | 19 | 0.94 |  |  |
| very low | CCCCCCCCCCCCCCCC(=O)OCC(COC(=O)CCCCCCCCCCCCCCC)OC(=O)CCCCCC[C@H]1C(=O)C[C@@H](O)[C@@H]1/C=C/[C@@H](O)CCCCC [Comparative compound, PGE1 1,3-bis(palmitoyloxy)-2-propyl ester, reference compound] |  | 350 | 710 | 23.6 | 1 | 7.1 |  | 1 | 6 | 1 | 830 | 8 |
|  | CCCCCCCCCCCC(=O)OCC(COC(=O)CCCCCCCCCCC)OC(=O)CCCCCC[C@H]1C(=O)C[C@@H](O)[C@@H]1/C=C/[C@@H](O)CCCCC [Example 1, PGE1 1,3-bis (dodecanoyloxy)-2-propyl ester] | 116 | 483 | 2566 | 3.6 | 6.6 | 2.2 | 0 | 1 | 9 | 0.31 |  |  |
